# Laboratory results as given in patent US5700478A, “Water-soluble pressure-sensitive mucoadhesive and devices provided therewith for emplacement in a mucosa-lined body cavity” (Cygnus, Inc., priority 1995, dated 1997).
# Structures can show the parent of a compound that is named as a salt.
# Experiments:
# [1] = Release of benzocaine into distilled water: effect of polymer molecular weight; type: physicochemical; details: HPC 80 k vs. 300 k in active-containing layer, FIG. 11
# Experimental: In this Example, bilaminate mucoadhesive discs containing benzocaine were constructed generally as described in Example IX, substituting benzocaine for Dyclonine. Discs were made using HPC both at the same molecular weight as described in Example 2 (80 k), and at a higher molecular weight (300 k), and the release into distilled water was tested as described in Example X. The results are shown in FIG. 11.
# [2] = Transport through human stratum corneum (Franz diffusion cells); type: in vitro ADME
# Experimental: In this example, bilaminate mucoadhesive discs, containing as an active substance benzocaine or Dyclonine HCl, were affixed to human stratum corneum and mounted on Franz diffusion cells. The donor side of the cell was filled with pH 6 buffer and the receiver side was filled with PBS. Samples were taken from the receiver side and analyzed using HPLC, and the average amount and percentage of active substance appearing in the receiver cell were determined.
# [3] = Transport through pig mucosa (Franz diffusion cells); type: in vitro ADME, porcine
# Experimental: In this example, bilaminate mucoadhesive discs, containing as an active substance benzocaine or Dyclonine HCl, were affixed to porcine buccal mucosa and mounted on Franz diffusion cells as described in Example XIII. Avenge amounts of active substance was measured using HPLC, and percents were expressed as a percent of the total initially in the disc.
# Particularly, the donor side of the cell was filled with pH 6 buffer and the receiver side was filled with phosphate buffered saline ("PBS"). Samples were taken from the receiver side every thirty minutes for three hours, and the samples were analyzed by HPLC. The average amount and the average percent of active substance appearing in the receiver side after three hours are shown in Table IV.
Compound,release rate of benzocaine vs. molecular weight of HPC [1],"Average % Transported ([2]; 15% in bilaminate disc, donor pH 6 buffer, receiver PBS) [%]",Average Amount Delivered ([2]; pH 6) [μg/cm^2],"Average % Transported ([3]; 15% in bilaminate disc, % of drug initially in device, three hours, donor pH 6 buffer, receiver PBS) [%]",Average Amount Delivered ([3]; pH 6) [μg/cm^2],Average % Transported ([2]; pH 6) [%],Average % Transported ([3]; pH 6) [%]
"CCOC(=O)c1ccc(N)cc1 [Benzocaine, benzocaine]",decrease in release rate of benzocaine with increasing molecular weight of HPC,2.42,255.56,3.29,284.63,,
CCCCOc1ccc(C(=O)CCN2CCCCC2)cc1 [Dyclonine HCl],,,14.60,,282.77,0.18,3.94
